Source: patent US7202280B2, “Methods for the treatment and prevention of pancreatitis and for induction of liver regeneration” (priority 2002, dated 2007)

Test system: syngenic and metallothionein-SSAT mice
Experiment: Hepatic, pancreatic and renal polyamine concentration in syngenic and metallothionein-SSAT mice after analogue
Format: in vivo, mouse
Settings: 24 h before sacrifice
Protocol: α-methylspermidine, Bis-α-methylspermine and α-methylspermine were administered in saline. […] The data are expressed as means ±S.D. For statistical analysis, the two-tailed Student's t test was used.

[1] = Tg (transgenic) mice, 12.5 mg/kg
[2] = Tg (transgenic) mice, 37.5 mg/kg

CC(N)CCNCCCCNCCCN (stereo not drawn) [α-methylspermine, 1-methylspermine]
hepatic concentration, α-Methylspermine (Sg (syngenic) mice, 12.5 mg/kg): 470.60 pmoles/mg tissue wet weight | hepatic polyamine concentration, N^1-Acetylspermidine (Sg (syngenic) mice, 12.5 mg/kg): 37.49 pmoles/mg tissue wet weight | hepatic polyamine concentration, Putrescine (Sg (syngenic) mice, 12.5 mg/kg): 39.46 pmoles/mg tissue wet weight | hepatic polyamine concentration, Spermidine (Sg (syngenic) mice, 12.5 mg/kg): 669.94 pmoles/mg tissue wet weight | hepatic polyamine concentration, Spermine (Sg (syngenic) mice, 12.5 mg/kg): 568.21 pmoles/mg tissue wet weight | pancreatic polyamine concentration, N^1-Acetylspermidine (Sg (syngenic) mice, 12.5 mg/kg): 56.32 pmoles/mg tissue wet weight | pancreatic polyamine concentration, N^8-Acetylspermidine (Sg (syngenic) mice, 12.5 mg/kg): 17.17 pmoles/mg tissue wet weight | pancreatic polyamine concentration, Putrescine (Sg (syngenic) mice, 12.5 mg/kg): 80.74 pmoles/mg tissue wet weight | pancreatic polyamine concentration, Spermidine (Sg (syngenic) mice, 12.5 mg/kg): 7952.04 pmoles/mg tissue wet weight | pancreatic polyamine concentration, Spermine (Sg (syngenic) mice, 12.5 mg/kg): 1048.44 pmoles/mg tissue wet weight | renal concentration, α-Methylspermine (Sg (syngenic) mice, 12.5 mg/kg): 197.48 ± 6.80 pmoles/mg tissue wet weight | renal polyamine concentration, N^1-Acetylspermidine (Sg (syngenic) mice, 12.5 mg/kg): 46.16 pmoles/mg tissue wet weight | renal polyamine concentration, N^8-Acetylspermidine (Sg (syngenic) mice, 12.5 mg/kg): 24.91 pmoles/mg tissue wet weight | renal polyamine concentration, Putrescine (Sg (syngenic) mice, 12.5 mg/kg): 48.17 pmoles/mg tissue wet weight | renal polyamine concentration, Spermidine (Sg (syngenic) mice, 12.5 mg/kg): 312.55 pmoles/mg tissue wet weight | renal polyamine concentration, Spermine (Sg (syngenic) mice, 12.5 mg/kg): 247.41 pmoles/mg tissue wet weight | hepatic concentration, α-Methylspermine (Sg (syngenic) mice, 25 mg/kg): 420.20 pmoles/mg tissue wet weight | hepatic polyamine concentration, Putrescine (Sg (syngenic) mice, 25 mg/kg): 44.18 pmoles/mg tissue wet weight | hepatic polyamine concentration, Spermidine (Sg (syngenic) mice, 25 mg/kg): 1015.51 pmoles/mg tissue wet weight | hepatic polyamine concentration, Spermine (Sg (syngenic) mice, 25 mg/kg): 411.06 pmoles/mg tissue wet weight | pancreatic polyamine concentration, N^1-Acetylspermidine (Sg (syngenic) mice, 25 mg/kg): 19.45 pmoles/mg tissue wet weight | pancreatic polyamine concentration, N^8-Acetylspermidine (Sg (syngenic) mice, 25 mg/kg): 24.47 pmoles/mg tissue wet weight | pancreatic polyamine concentration, Putrescine (Sg (syngenic) mice, 25 mg/kg): 50.98 pmoles/mg tissue wet weight | pancreatic polyamine concentration, Spermidine (Sg (syngenic) mice, 25 mg/kg): 5421.66 pmoles/mg tissue wet weight | pancreatic polyamine concentration, Spermine (Sg (syngenic) mice, 25 mg/kg): 729.10 pmoles/mg tissue wet weight | renal concentration, α-Methylspermine (Sg (syngenic) mice, 25 mg/kg): 228.87 ± 6.44 pmoles/mg tissue wet weight | renal polyamine concentration, N^1-Acetylspermidine (Sg (syngenic) mice, 25 mg/kg): 59.48 pmoles/mg tissue wet weight | renal polyamine concentration, N^8-Acetylspermidine (Sg (syngenic) mice, 25 mg/kg): 25.80 pmoles/mg tissue wet weight | renal polyamine concentration, Putrescine (Sg (syngenic) mice, 25 mg/kg): 122.64 pmoles/mg tissue wet weight | renal polyamine concentration, Spermidine (Sg (syngenic) mice, 25 mg/kg): 215.41 pmoles/mg tissue wet weight | renal polyamine concentration, Spermine (Sg (syngenic) mice, 25 mg/kg): 272.18 pmoles/mg tissue wet weight | hepatic concentration, α-Methylspermine (Sg (syngenic) mice, 37.5 mg/kg): 510.72 pmoles/mg tissue wet weight | hepatic polyamine concentration, Spermidine (Sg (syngenic) mice, 37.5 mg/kg): 830.89 pmoles/mg tissue wet weight | hepatic polyamine concentration, Spermine (Sg (syngenic) mice, 37.5 mg/kg): 485.75 pmoles/mg tissue wet weight | pancreatic polyamine concentration, Putrescine (Sg (syngenic) mice, 37.5 mg/kg): 36.15 pmoles/mg tissue wet weight | pancreatic polyamine concentration, Spermidine (Sg (syngenic) mice, 37.5 mg/kg): 5806.20 pmoles/mg tissue wet weight | pancreatic polyamine concentration, Spermine (Sg (syngenic) mice, 37.5 mg/kg): 804.72 pmoles/mg tissue wet weight | renal concentration, α-Methylspermine (Sg (syngenic) mice, 37.5 mg/kg): 245.67 ± 38.85 pmoles/mg tissue wet weight | renal polyamine concentration, N^1-Acetylspermidine (Sg (syngenic) mice, 37.5 mg/kg): 30.29 pmoles/mg tissue wet weight | renal polyamine concentration, N^8-Acetylspermidine (Sg (syngenic) mice, 37.5 mg/kg): 24.30 pmoles/mg tissue wet weight | renal polyamine concentration, Putrescine (Sg (syngenic) mice, 37.5 mg/kg): 59.01 pmoles/mg tissue wet weight | renal polyamine concentration, Spermidine (Sg (syngenic) mice, 37.5 mg/kg): 244.82 pmoles/mg tissue wet weight | renal polyamine concentration, Spermine (Sg (syngenic) mice, 37.5 mg/kg): 207.72 pmoles/mg tissue wet weight | hepatic concentration, α-Methylspermine (Sg (syngenic) mice, 50 mg/kg): 521.41 pmoles/mg tissue wet weight | hepatic polyamine concentration, N^1-Acetylspermidine (Sg (syngenic) mice, 50 mg/kg): 45.74 pmoles/mg tissue wet weight | hepatic polyamine concentration, N^8-Acetylspermidine (Sg (syngenic) mice, 50 mg/kg): 15.33 pmoles/mg tissue wet weight | hepatic polyamine concentration, Putrescine (Sg (syngenic) mice, 50 mg/kg): 22.71 pmoles/mg tissue wet weight | hepatic polyamine concentration, Spermidine (Sg (syngenic) mice, 50 mg/kg): 780.24 pmoles/mg tissue wet weight | hepatic polyamine concentration, Spermine (Sg (syngenic) mice, 50 mg/kg): 419.39 pmoles/mg tissue wet weight | pancreatic polyamine concentration, N^8-Acetylspermidine (Sg (syngenic) mice, 50 mg/kg): 19.89 pmoles/mg tissue wet weight | pancreatic polyamine concentration, Putrescine (Sg (syngenic) mice, 50 mg/kg): 107.70 pmoles/mg tissue wet weight | pancreatic polyamine concentration, Spermidine (Sg (syngenic) mice, 50 mg/kg): 6839.92 pmoles/mg tissue wet weight | pancreatic polyamine concentration, Spermine (Sg (syngenic) mice, 50 mg/kg): 811.45 pmoles/mg tissue wet weight | renal concentration, α-Methylspermine (Sg (syngenic) mice, 50 mg/kg): 263.69 ± 49.92 pmoles/mg tissue wet weight | renal polyamine concentration, N^1-Acetylspermidine (Sg (syngenic) mice, 50 mg/kg): 48.23 pmoles/mg tissue wet weight | renal polyamine concentration, N^8-Acetylspermidine (Sg (syngenic) mice, 50 mg/kg): 21.09 pmoles/mg tissue wet weight | renal polyamine concentration, Putrescine (Sg (syngenic) mice, 50 mg/kg): 160.04 pmoles/mg tissue wet weight | renal polyamine concentration, Spermidine (Sg (syngenic) mice, 50 mg/kg): 193.19 pmoles/mg tissue wet weight | renal polyamine concentration, Spermine (Sg (syngenic) mice, 50 mg/kg): 258.42 pmoles/mg tissue wet weight | hepatic concentration, α-Methylspermine [1]: 138.89 pmoles/mg tissue wet weight | hepatic polyamine concentration, N^1-Acetylspermidine [1]: 242.81 pmoles/mg tissue wet weight | hepatic polyamine concentration, Putrescine [1]: 857.28 pmoles/mg tissue wet weight | hepatic polyamine concentration, Spermidine [1]: 717.42 pmoles/mg tissue wet weight | hepatic polyamine concentration, Spermine [1]: 62.74 pmoles/mg tissue wet weight | pancreatic concentration, α-Methylspermine [1]: 132.85 ± 26.34 pmoles/mg tissue wet weight | pancreatic polyamine concentration, N^1-Acetylspermidine [1]: 154.67 pmoles/mg tissue wet weight | pancreatic polyamine concentration, Putrescine [1]: 5691.31 pmoles/mg tissue wet weight | pancreatic polyamine concentration, Spermidine [1]: 2304.42 pmoles/mg tissue wet weight | pancreatic polyamine concentration, Spermine [1]: 42.35 pmoles/mg tissue wet weight | renal concentration, α-Methylspermine [1]: 198.34 ± 10.11 pmoles/mg tissue wet weight | renal polyamine concentration, N^1-Acetylspermidine [1]: 38.55 pmoles/mg tissue wet weight | renal polyamine concentration, N^8-Acetylspermidine [1]: 24.62 pmoles/mg tissue wet weight | renal polyamine concentration, Putrescine [1]: 58.16 pmoles/mg tissue wet weight | renal polyamine concentration, Spermidine [1]: 247.60 pmoles/mg tissue wet weight | renal polyamine concentration, Spermine [1]: 208.03 pmoles/mg tissue wet weight | hepatic concentration, α-Methylspermidine (Tg (transgenic) mice, 25 mg/kg): 197.89 ± 47.51 pmoles/mg tissue wet weight | hepatic concentration, α-Methylspermine (Tg (transgenic) mice, 25 mg/kg): 145.99 pmoles/mg tissue wet weight | hepatic polyamine concentration, N^1-Acetylspermidine (Tg (transgenic) mice, 25 mg/kg): 317.98 pmoles/mg tissue wet weight | hepatic polyamine concentration, N^8-Acetylspermidine (Tg (transgenic) mice, 25 mg/kg): 36.49 pmoles/mg tissue wet weight | hepatic polyamine concentration, Putrescine (Tg (transgenic) mice, 25 mg/kg): 872.47 pmoles/mg tissue wet weight | hepatic polyamine concentration, Spermidine (Tg (transgenic) mice, 25 mg/kg): 349.61 pmoles/mg tissue wet weight | hepatic polyamine concentration, Spermine (Tg (transgenic) mice, 25 mg/kg): 49.71 pmoles/mg tissue wet weight | pancreatic concentration, α-Methylspermine (Tg (transgenic) mice, 25 mg/kg): 130.62 ± 33.84 pmoles/mg tissue wet weight | pancreatic polyamine concentration, N^1-Acetylspermidine (Tg (transgenic) mice, 25 mg/kg): 327.88 pmoles/mg tissue wet weight | pancreatic polyamine concentration, Putrescine (Tg (transgenic) mice, 25 mg/kg): 5798.24 pmoles/mg tissue wet weight | pancreatic polyamine concentration, Spermidine (Tg (transgenic) mice, 25 mg/kg): 2449.50 pmoles/mg tissue wet weight | pancreatic polyamine concentration, Spermine (Tg (transgenic) mice, 25 mg/kg): 37.63 pmoles/mg tissue wet weight | renal concentration, α-Methylspermine (Tg (transgenic) mice, 25 mg/kg): 227.76 ± 11.79 pmoles/mg tissue wet weight | renal polyamine concentration, N^1-Acetylspermidine (Tg (transgenic) mice, 25 mg/kg): 42.95 pmoles/mg tissue wet weight | renal polyamine concentration, N^8-Acetylspermidine (Tg (transgenic) mice, 25 mg/kg): 25.16 pmoles/mg tissue wet weight | renal polyamine concentration, Putrescine (Tg (transgenic) mice, 25 mg/kg): 68.39 pmoles/mg tissue wet weight | renal polyamine concentration, Spermidine (Tg (transgenic) mice, 25 mg/kg): 156.66 pmoles/mg tissue wet weight | renal polyamine concentration, Spermine (Tg (transgenic) mice, 25 mg/kg): 209.57 pmoles/mg tissue wet weight | hepatic concentration, α-Methylspermidine [2]: 274.07 ± 18.43 pmoles/mg tissue wet weight | hepatic concentration, α-Methylspermine [2]: 203.75 pmoles/mg tissue wet weight | hepatic polyamine concentration, N^1-Acetylspermidine [2]: 180.48 pmoles/mg tissue wet weight | hepatic polyamine concentration, N^8-Acetylspermidine [2]: 14.15 pmoles/mg tissue wet weight | hepatic polyamine concentration, Putrescine [2]: 774.33 pmoles/mg tissue wet weight | hepatic polyamine concentration, Spermidine [2]: 305.70 pmoles/mg tissue wet weight | hepatic polyamine concentration, Spermine [2]: 47.47 pmoles/mg tissue wet weight | pancreatic concentration, α-Methylspermine [2]: 105.85 ± 91.76 pmoles/mg tissue wet weight | pancreatic polyamine concentration, N^1-Acetylspermidine [2]: 176.49 pmoles/mg tissue wet weight | pancreatic polyamine concentration, Putrescine [2]: 7426.10 pmoles/mg tissue wet weight | pancreatic polyamine concentration, Spermidine [2]: 2106.09 pmoles/mg tissue wet weight | pancreatic polyamine concentration, Spermine [2]: 51.89 pmoles/mg tissue wet weight | renal concentration, α-Methylspermine [2]: 224.06 ± 27.10 pmoles/mg tissue wet weight | renal polyamine concentration, N^1-Acetylspermidine [2]: 32.33 pmoles/mg tissue wet weight | renal polyamine concentration, N^8-Acetylspermidine [2]: 24.59 pmoles/mg tissue wet weight | renal polyamine concentration, Putrescine [2]: 95.60 pmoles/mg tissue wet weight | renal polyamine concentration, Spermidine [2]: 233.85 pmoles/mg tissue wet weight | renal polyamine concentration, Spermine [2]: 158.91 pmoles/mg tissue wet weight | hepatic concentration, α-Methylspermidine (Tg (transgenic) mice, 50 mg/kg): 255.30 ± 60.90 pmoles/mg tissue wet weight | hepatic concentration, α-Methylspermine (Tg (transgenic) mice, 50 mg/kg): 168.36 pmoles/mg tissue wet weight | hepatic polyamine concentration, N^1-Acetylspermidine (Tg (transgenic) mice, 50 mg/kg): 265.90 pmoles/mg tissue wet weight | hepatic polyamine concentration, Putrescine (Tg (transgenic) mice, 50 mg/kg): 1057.25 pmoles/mg tissue wet weight | hepatic polyamine concentration, Spermidine (Tg (transgenic) mice, 50 mg/kg): 196.67 pmoles/mg tissue wet weight | hepatic polyamine concentration, Spermine (Tg (transgenic) mice, 50 mg/kg): 38.02 pmoles/mg tissue wet weight | pancreatic concentration, α-Methylspermine (Tg (transgenic) mice, 50 mg/kg): 185.90 ± 20.82 pmoles/mg tissue wet weight | pancreatic polyamine concentration, N^1-Acetylspermidine (Tg (transgenic) mice, 50 mg/kg): 284.83 pmoles/mg tissue wet weight | pancreatic polyamine concentration, Putrescine (Tg (transgenic) mice, 50 mg/kg): 9027.03 pmoles/mg tissue wet weight | pancreatic polyamine concentration, Spermidine (Tg (transgenic) mice, 50 mg/kg): 3570.11 pmoles/mg tissue wet weight | pancreatic polyamine concentration, Spermine (Tg (transgenic) mice, 50 mg/kg): 70.53 pmoles/mg tissue wet weight | renal concentration, α-Methylspermine (Tg (transgenic) mice, 50 mg/kg): 319.33 ± 19.28 pmoles/mg tissue wet weight | renal polyamine concentration, N^1-Acetylspermidine (Tg (transgenic) mice, 50 mg/kg): 44.20 pmoles/mg tissue wet weight | renal polyamine concentration, N^8-Acetylspermidine (Tg (transgenic) mice, 50 mg/kg): 24.48 pmoles/mg tissue wet weight | renal polyamine concentration, Putrescine (Tg (transgenic) mice, 50 mg/kg): 91.94 pmoles/mg tissue wet weight | renal polyamine concentration, Spermidine (Tg (transgenic) mice, 50 mg/kg): 155.85 pmoles/mg tissue wet weight | renal polyamine concentration, Spermine (Tg (transgenic) mice, 50 mg/kg): 205.04 pmoles/mg tissue wet weight
